Reference: patent publication US3954793A, “1-(2-Propynyl)-1 H-indazole compounds” (priority 1973, dated 1976)
Read-outs that look alike come from different tables or passages of the source.

Columns and labels:
[1] = tested on: polyvalent resistant (CH strain) houseflies; assay: whole plant or invertebrate; assay type: in vivo; details: CH strain; for percent kill after 24 hours, with GS 13005: GS 13005 1 + synergist 2 μg/fly; for mortality at 10 µg/fly: Musca domestica, topical, 24 h, read-out: percent kill after 24 hours, synergist alone; for mortality at 10 µg/fly / percent kill after 24 hours, synergist alone: insecticide 0, synergist 10 μg/fly; for percent kill after 24 hours, with Dimetilan: Dimetilan 2 + synergist 4 μg/fly; for percent kill after 24 hours, with pyrethrum: Pyrethrum 2 + synergist 4 μg/fly; for percent kill after 24 hours, with GS 13798: GS 13798 1 + synergist 2 μg/fly
Method: The effect of O-(2-propynyl) oximes with Dimetilan and with GS 13798 was obtained from tests on polyvalent resistant (CH strain) houseflies that had been chilled and to the dorsal region of which was applied an acetone solution of synergist and insecticide at a ratio of two to one. Duplicate tests were performed using 10 four to five-day old female houseflies per test. After dosage, the flies were put in a plastic petri dish with cotton soaked in a sugar-water solution. These doses of insecticide used without synergist caused 10-40% mortality.
In Table IX, and in the tables following it, the doses of topically applied insecticides and of synergists unless otherwise noted are expressed as micrograms per fly (μg/fly).
The effect of compounds II-C, II-D and II-E with Dimetilan and GS 13798 was determined, following the procedure of Example 5, from tests on polyvalent resistant (CH strain) houseflies. These doses of insecticide used without synergist caused 10-40% mortality.
The synergistic effect with GS 13005 of compounds I-A, I-B, I-D, I-E, I-F, I-G and I-I was determined from topical application tests to IN/WHO strain, Rutgers A strain and polyvalent CH strain houseflies using the procedures of Example 5. The percent kills of the IN/WHO strain flies after 24 hours are shown in Table XXVIII; of the Rutgers A strain, in Table XXIX; and of the polyvalent CH strain, in Table XXX. The doses of insecticide alone to the CH strain files caused 10-40% mortality.
The synergistic effect with Diazinon and GS 13005 of various of the benzyl 2-propynyl ethers identified in Tables II and IIa was determined by topical application tests on IN/WHO strain, and Rutgers A strain and polyvalent, resistant, CH strain houseflies using the procedures of Example 5. The percent kills after 24 hours of IN/WHO strain flies are shown in Table XXXI; of Rutgers A strain flies, in Table XXXII; and of CH strain flies, in Table XXXIII. The doses of insecticide alone to the CH strain flies caused 10-40% mortality.
The synergistic effect with pyrethrum of various synergist compounds was determined by topical application tests on polyvalent, resistant CH strain houseflies following the procedure of Example 5. Application of the insecticide alone caused 10-40% mortality.

[2] = tested on: Swiss albino, white male mice; assay: acute toxicity and synergism of acute toxicity in mice; assay type: in vivo; details: for number of mice dead, with Dimetilan: 48 hours; for number of mice dead, with Dimetilan / number of mice dead, synergist alone: eight mice; for number of mice dead, with GS 13005: GS 13005 71 + synergist 213 mg/kg; for number of mice dead, with Methadone: Methadone 32 + synergist 215 mg/kg; for number of mice dead, with Secobarbital: Secobarbital 90 + synergist 215 mg/kg; for number of mice dead, synergist alone: synergist 1000 mg/kg i.p., Dimetilan 0, 72 hours
Procedure, shortened: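 Male Swiss albino mice (23 to 27 g, five to six weeks), eight per dose, dosed intraperitoneally in corn oil: dimetilan alone at 4 to 32 mg per kg, synergists alone at 1000 mg/kg with deaths counted at 72 hours. For synergism, synergist given 1 hour before insecticide, lethality observed for at least 6 hours.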

houseflies = assay: topical application with Diazinon, Table XXVII (strain not given); assay type: in vivo; details: for mortality at 10 µg/fly: Musca domestica, topical, 24 h, Diazinon 0, synergist 10 μg/fly, read-out: percent kill after 24 hours, synergist alone (Table XXVII)
[3] = tested on: German male cockroaches (Blatella Germanicus); assay: topical application to thorax, 24 hour mortality of German male cockroaches; assay type: in vivo; details: for percent insect mortality, synergist alone (GS 13005 test doses): synergist doses of Table XXXXI; for percent insect mortality, synergist alone (GS 13005 test doses) / percent insect mortality, synergist alone (mobam test doses): no insecticide; for percent insect mortality, synergist alone (mobam test doses): synergist doses of Table XXXX
Method: The synergistic effect with mobam of synergist compounds I-B, II-H, II-K and IV-C is further illustrated by the 24 hour mortality data of German male cockroaches (Blatella Germanicus) shown in Table XXXX. The synergists and insecticide were diluted in acetone and applied in small droplets to the thorax of the insect. These doses of synergist alone gave zero percent insect mortality.
The synergistic effect with GS 13005 of compounds I-B, II-H, II-K, II-P, II-Q, II-R and IV-C is illustrated by the 24 hour mortality of German male cockroaches shown in Table XXXXI. These doses of synergist alone caused zero percent insect mortality.

[4] = tested on: Wilson strain house flies; assay type: in vivo, Wilson strain (susceptible); details: for Contact Synergistic Ratio, Pyrolan: LC50 pyrolan alone / LC50 with synergist
Procedure, shortened: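 Wilson strain house flies held at room temperature in glass jars coated with acetone-deposited insecticide film, alone or with synergist at 5:1 synergist:insecticide by weight.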

[5] = Dimetilan 8 + synergist 80 mg/kg i.p.
[6] = Dimetilan 8 + synergist 240 mg/kg i.p.
[7] = GS 13005 dose 0.08 + synergist 0.40, pretreated with synergist two hours before insecticide
[8] = GS 13005 dose 0.08 + synergist 4.0, cockroaches
[9] = synergist to insecticide 5:1 by weight
[10] = Mobam dose 0.12 + synergist 0.60, pretreated with synergist two hours before insecticide
[11] = Mobam dose 0.16 + synergist 0.80, cockroaches

SMILES	percent kill after 24 hours, with GS 13005 [1] [%]	mortality at 10 µg/fly [1] [%]	percent kill after 24 hours, synergist alone [1] [%]	number of mice dead, with Dimetilan [2, 5]	number of mice dead, with Dimetilan [2, 6]	24 hour mortality, with GS 13005 [3, 7] [%]	percent insect mortality, synergist alone (GS 13005 test doses) [3]	number of mice dead, with GS 13005 [2]	number of mice dead, synergist alone [2]	Contact Synergistic Ratio, Pyrolan [4, 9]	Contact Synergistic Ratio, Carbaryl ([4]; in vivo)	also measured
C#CCON=Cc1cccc2ccccc12 [I-I]	47	0	0	0	3	–	–	–	–	–	–	mortality at 10 µg/fly (houseflies): 0%
C#CCOCc1ccccc1[N+](=O)[O-] [II-P, 2-nitrobenzyl 2-propynyl ether]	–	–	–	–	0	90	zero	6	2	–	–	24 hour mortality, with GS 13005 [3, 8]: 60%; number of mice dead, with Methadone [2]: 0; number of mice dead, with Secobarbital [2]: 0
C#CCON=C(C)c1ccc2ccccc2c1 [I-F]	100	0	0	0	4	–	–	–	–	50	200	percent kill after 24 hours, with Dimetilan [1]: 100%; percent kill after 24 hours, with pyrethrum [1]: 35%
C#CCOCc1c(Cl)cccc1[N+](=O)[O-] [II-K]	–	–	–	0	6	100	zero	3	1	–	–	24 hour mortality, with Mobam [3, 10]: 100%; percent insect mortality, synergist alone (mobam test doses) [3]: zero; number of mice dead, with Methadone [2]: 2; number of mice dead, with Secobarbital [2]: 1
C#CCOCc1cccc2ccccc12 [II-R, α-napthylmethyl 2-propynyl ether]	–	–	–	0	2	100	zero	–	–	–	–	–
C#CCOC(c1ccc(Cl)cc1)C(C)[N+](=O)[O-] (stereo not drawn) [IV-C]	–	–	–	5	7	90	zero	–	–	–	–	24 hour mortality, with GS 13005 [3, 8]: 30%; 24 hour mortality, with Mobam [3, 10]: 60%; 24 hour mortality, with Mobam [3, 11]: 40%; percent insect mortality, synergist alone (mobam test doses) [3]: zero
C#CCOCc1c(Cl)cccc1Cl [II-H]	–	–	–	0	6	100	zero	7	0	40	300	24 hour mortality, with Mobam [3, 10]: 90%; percent insect mortality, synergist alone (mobam test doses) [3]: zero; number of mice dead, with Methadone [2]: 4; number of mice dead, with Secobarbital [2]: 0
C#CCOCc1ccc(Cl)c(Cl)c1Cl [II-D]	–	0	0	–	0	–	–	3	0	30	200	percent kill after 24 hours, with Dimetilan [1]: 100%; percent kill after 24 hours, with GS 13798 [1]: 100%; percent kill after 24 hours, with pyrethrum [1]: 30%; number of mice dead, with Methadone [2]: 2; number of mice dead, with Secobarbital [2]: 1
C#CCOCc1cc(Cl)c(Cl)cc1Cl [II-F]	–	–	–	–	0	–	–	–	–	15	150	–
C#CCOCc1c(Cl)ccc(Cl)c1Cl [II-E]	100	10	10	–	0	–	–	–	–	20	120	percent kill after 24 hours, with GS 13798 [1]: 100%
C#CCON=C(C)c1ccc(Cl)cc1 [I-D]	100	0	0	1	6	–	–	–	–	25	177	percent kill after 24 hours, with Dimetilan [1]: 100%; percent kill after 24 hours, with GS 13798 [1]: 100%; percent kill after 24 hours, with Diazinon (Table XXVII) (houseflies; Diazinon 5 + synergist 10 μg/fly): 100%; mortality at 10 µg/fly (houseflies): 0%
C#CCOCc1ccc(Cl)c(Cl)c1 [II-C]	–	0	0	–	0	–	–	–	–	15	–	Contact Synergistic Ratio, Carbaryl ([4]; LC50 carbaryl alone / LC50 with synergist, synergist to insecticide 5:1 by weight): 100; percent kill after 24 hours, with Dimetilan [1]: 100%
C#CCON=Cc1ccc(Cl)cc1Cl [I-G]	100	0	0	–	0	–	–	–	–	–	–	percent kill after 24 hours, with pyrethrum [1]: 47%; mortality at 10 µg/fly (houseflies): 0%
C#CCON=Cc1cccc([N+](=O)[O-])c1 [I-B]	–	–	–	1	6	95	zero	–	–	35	270	24 hour mortality, with GS 13005 [3, 8]: 40%; 24 hour mortality, with Mobam [3, 10]: 80%; 24 hour mortality, with Mobam [3, 11]: 50%; percent insect mortality, synergist alone (mobam test doses) [3]: zero
C#CCOCc1ccc([N+](=O)[O-])cc1 [II-Q, 4-nitrobenzyl 2-propynyl ether]	–	–	–	–	1	95	zero	6	7	–	–	–
